Measured values: patent US8883782B2, “Spiro-tetracyclic ring compounds as beta-secretase modulators and methods of use” (Amgen Inc., priority 2010, dated 2014)

Key:
[1] = biological target: Beta Secretase enzyme (BACE) (Homo sapiens, UniProt P56817); assay: In vitro enzymatic BACE FRET (fluorescence resonance energy transfer) assay; assay type: biochemical; settings: average IC50, enzyme assay; read-out: BACE 1 FRET assay
Method in brief: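 Fluorescence read after Tris quench to neutral pH. Reaction: 50 nM fluorophore/quencher peptide substrate, 1 h, in 0.05 M acetate pH 4.2, 10% DMSO final, 100 uM genapol.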

[2] = system: Aβ40 in conditioned medium of cells stably expressing Amyloid Precursor Protein (APP); assay: In vitro BACE cell-based assay (Aβ40 in conditioned medium, sandwich ELISA); settings: Homo sapiens, HEK293, average IC50; read-out: HEK cell assay
Method in brief: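 Conditioned medium from stably APP-expressing cells treated with compound dose series is assayed for Aβ40 by sandwich ELISA with time-resolved fluorescence detection. IC50 is calculated from percent inhibition of Aβ40 against compound concentration.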

Chain of Beta Secretase enzyme (BACE) (P56817 46-501, species assumed): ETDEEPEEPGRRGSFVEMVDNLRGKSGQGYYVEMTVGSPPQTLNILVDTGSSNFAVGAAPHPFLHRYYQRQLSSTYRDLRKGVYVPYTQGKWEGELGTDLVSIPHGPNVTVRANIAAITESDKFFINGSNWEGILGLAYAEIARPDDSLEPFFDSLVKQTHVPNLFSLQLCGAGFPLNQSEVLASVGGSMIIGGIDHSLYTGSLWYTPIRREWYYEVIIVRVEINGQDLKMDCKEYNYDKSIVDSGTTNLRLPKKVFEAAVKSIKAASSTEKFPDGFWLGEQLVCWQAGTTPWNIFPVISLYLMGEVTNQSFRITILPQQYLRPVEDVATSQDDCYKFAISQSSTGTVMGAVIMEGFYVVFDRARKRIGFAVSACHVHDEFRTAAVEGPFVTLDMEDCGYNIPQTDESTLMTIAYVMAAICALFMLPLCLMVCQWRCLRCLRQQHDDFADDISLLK

IC50 [1] [nM] | IC50 [2] [nM] | SMILES
22.3 | 374 | NC1=N[C@@]2(CO1)c1cc(Oc3cc(Cl)ccn3)ccc1Oc1c(F)cc(N3CCOCC3)cc12 [Example 1062, (4S)-7′-((4-chloro-2-pyridinyl)oxy)-4′-fluoro-2′-(4-morpholinyl)spiro[1,3-oxazole-4,9′-xanthen]-2-amine]
33.7 | 751 | Cc1cccc(Oc2ccc3c(c2)[C@@]2(COC(N)=N2)c2cc(C4=CCOCC4)cc(F)c2O3)n1 [Example 1063, (4S)-2′-(3,6-dihydro-2H-pyran-4-yl)-4′-fluoro-7′-((6-methyl-2-pyridinyl)oxy)spiro[1,3-oxazole-4,9′-xanthen]-2-amine]
21.1 | 442 | Cc1ccc(Oc2ccc3c(c2)[C@@]2(COC(N)=N2)c2cc(C4=CCOCC4)cc(F)c2O3)nc1 [Example 1064, (4S)-2′-(3,6-dihydro-2H-pyran-4-yl)-4′-fluoro-7′-((5-methyl-2-pyridinyl)oxy)spiro[1,3-oxazole-4,9′-xanthen]-2-amine]
37.7 | 1480 | Cc1ccnc(Oc2ccc3c(c2)[C@@]2(COC(N)=N2)c2cc(C4=CCOCC4)cc(F)c2O3)c1 [Example 1065, (4S)-2′-(3,6-dihydro-2H-pyran-4-yl)-4′-fluoro-7′-((4-methyl-2-pyridinyl)oxy)spiro[1,3-oxazole-4,9′-xanthen]-2-amine]
52.6 | 1970 | NC1=N[C@@]2(CO1)c1cc(Oc3ccc(Cl)cn3)ccc1Oc1c(F)cc(C3=CCOCC3)cc12 [Example 1066, (4S)-7′-((5-chloro-2-pyridinyl)oxy)-2′-(3,6-dihydro-2H-pyran-4-yl)-4′-fluorospiro[1,3-oxazole-4,9′-xanthen]-2-amine]
2.3 | 62 | NC1=N[C@@]2(CS1)c1cc(-c3cccnc3F)ccc1Oc1c(F)cc(-c3ccncc3)cc12 [Example 1068, (4S)-4′-fluoro-7′-(2-fluoro-3-pyridinyl)-2′-(4-pyridinyl)spiro[1,3-thiazole-4,9′-xanthen]-2-amine]
0.6 | 10 | NC1=N[C@@]2(CS1)c1cc(-c3cccnc3F)ccc1Oc1c(F)cc(N3CCOCC3)cc12 [Example 1069, (4S)-4′-fluoro-7′-(2-fluoro-3-pyridinyl)-2′-(4-morpholinyl)spiro[1,3-thiazole-4,9′-xanthen]-2-amine]
345 | 367 | COc1cc(F)c2c(c1)[C@]1(COC(N)=N1)c1cc(-c3cncc(C(C)(F)F)c3)ccc1O2 [Example 1070, (4S)-7′-(5-(1,1-difluoroethyl)-3-pyridinyl)-4′-fluoro-2′-methoxyspiro[1,3-oxazole-4,9′-xanthen]-2-amine]
0.3 | 44 | NC1=N[C@@]2(CS1)c1cc(-c3cccnc3F)ccc1Oc1c(F)cc(-c3ccnc(F)c3)cc12 [Example 1071, (4S)-4′-fluoro-7′-(2-fluoro-3-pyridinyl)-2′-(2-fluoro-4-pyridinyl)spiro[1,3-thiazole-4,9′-xanthen]-2-amine]
3.3 | 29 | Cc1cc(-c2cc(F)c3c(c2)[C@]2(CSC(N)=N2)c2cc(-c4cccnc4F)ccc2O3)ccn1 [Example 1072, (4S)-4′-fluoro-7′-(2-fluoro-3-pyridinyl)-2′-(2-methyl-4-pyridinyl)spiro[1,3-thiazole-4,9′-xanthen]-2-amine]
61.4 | 194 | COc1cc(F)c2c(c1)[C@]1(COC(N)=N1)c1cc(-c3cncc(C(F)(F)F)c3)ccc1O2 [Example 1073, (4S)-4′-fluoro-2′-methoxy-7′-(5-(trifluoromethyl)-3-pyridinyl)spiro[1,3-oxazole-4,9′-xanthen]-2-amine]
131 | 324 | COc1cc(F)c2c(c1)[C@]1(COC(N)=N1)c1cc(-c3cncc(CC#N)c3)ccc1O2 [Example 1074, (5-((4S)-2-amino-5′-fluoro-7′-methoxyspiro[1,3-oxazole-4,9′-xanthen]-2′-yl)-3-pyridinyl)acetonitrile]
1.5 | 15 | NC1=N[C@@]2(CS1)c1cc(-c3cccnc3F)ccc1Oc1c(F)cc(N3CC[C@@H](F)C3)cc12 [Example 1075, (4S)-4′-fluoro-7′-(2-fluoro-3-pyridinyl)-2′-((3R)-3-fluoro-1-pyrrolidinyl)spiro[1,3-thiazole-4,9′-xanthen]-2-amine]
0.4 | 5 | NC1=N[C@@]2(CS1)c1cc(-c3cccnc3F)ccc1Oc1c(F)cc(N3CC4CC3CO4)cc12 (stereo partly drawn) [Example 1078, (4S)-4′-fluoro-7′-(2-fluoro-3-pyridinyl)-2′-(2-oxa-5-azabicyclo[2.2.1]hept-5-yl)spiro[1,3-thiazole-4,9′-xanthen]-2-amine]
214 | 899 | CC(C)(CF)COc1cc(F)c2c(c1)[C@]1(CSC(N)=N1)c1cc(-c3cccnc3F)ccc1O2 [Example 1081, (4S)-4′-fluoro-2′-(3-fluoro-2,2-dimethylpropoxy)-7′-(2-fluoro-3-pyridinyl)spiro[1,3-thiazole-4,9′-xanthen]-2-amine]
0.3 | 4 | C[C@H]1COCCN1c1cc(F)c2c(c1)[C@]1(CSC(N)=N1)c1cc(-c3cccnc3F)ccc1O2 [Example 1082, (4S)-4′-fluoro-7′-(2-fluoro-3-pyridinyl)-2′-((3S)-3-methyl-4-morpholinyl)spiro[1,3-thiazole-4,9′-xanthen]-2-amine]
0.3 | 23 | NC1=N[C@@]2(CS1)c1cc(-c3cccnc3F)ccc1Oc1c(F)cc(N3C[C@H]4C[C@@H]3CO4)cc12 [Example 1085, (4S)-4′-fluoro-7′-(2-fluoro-3-pyridinyl)-2′-((1R,4R)-2-oxa-5-azabicyclo[2.2.1]hept-5-yl)spiro[1,3-thiazole-4,9′-xanthen]-2-amine]

The remaining lines, values behind:

SMILES | IC50 [1] [nM] | IC50 [2] [nM]
NC1=N[C@]2(CO1)c1cc(C3=CCOCC3)cc(F)c1Oc1ccc(-c3cccnc3F)c(F)c12 [Example 1047, (4R)-7′-(3,6-dihydro-2H-pyran-4-yl)-1′,5′-difluoro-2′-(2-fluoro-3-pyridinyl)spiro[1,3-oxazole-4,9′-xanthen]-2-amine] | 4.6 | 95
NC1=N[C@]2(CO1)c1cc(C3=CCCOC3)cc(F)c1Oc1ccc(-c3cccnc3F)c(F)c12 [Example 1048, (4R)-7′-(5,6-dihydro-2H-pyran-3-yl)-1′,5′-difluoro-2′-(2-fluoro-3-pyridinyl)spiro[1,3-oxazole-4,9′-xanthen]-2-amine] | 3.9 | 36
NC1=N[C@]2(CO1)c1cc(C3=CCCOC3)cc(F)c1Oc1ccc(-c3cncnc3)c(F)c12 [Example 1049, (4R)-7′-(5,6-dihydro-2H-pyran-3-yl)-1′,5′-difluoro-2′-(5-pyrimidinyl)spiro[1,3-oxazole-4,9′-xanthen]-2-amine] | 15.6 | 85
NC1=N[C@]2(CO1)c1cc(N3CC[C@@H](F)C3)cc(F)c1Oc1ccc(-c3cncnc3)c(F)c12 [Example 1052, (4R)-1′,5′-difluoro-7′-((3R)-3-fluoro-1-pyrrolidinyl)-2′-(5-pyrimidinyl)spiro[1,3-oxazole-4,9′-xanthen]-2-amine] | 38.3 | 67
NC1=N[C@]2(CO1)c1cc(N3CC[C@@H](F)C3)cc(F)c1Oc1ccc(-c3cccnc3F)c(F)c12 [Example 1053, (4R)-1′,5′-difluoro-2′-(2-fluoro-3-pyridinyl)-7′-((3R)-3-fluoro-1-pyrrolidinyl)spiro[1,3-oxazole-4,9′-xanthen]-2-amine] | 10.3 | 79
NC1=N[C@@]2(CO1)c1cc(-c3cccnc3F)ccc1Oc1c(F)cc(N3CC4CC4C3)cc12 (stereo partly drawn) [Example 1054, (4S)-2′-(3-azabicyclo[3.1.0]hex-3-yl)-4′-fluoro-7′-(2-fluoro-3-pyridinyl)spiro[1,3-oxazole-4,9′-xanthen]-2-amine] | 0.6 | 62
NC1=N[C@@]2(CO1)c1cc(-c3cnccc3F)ccc1Oc1c(F)cc(C3CCOCC3)cc12 [Example 1056, (4S)-4′-fluoro-7′-(4-fluoro-3-pyridinyl)-2′-(tetrahydro-2H-pyran-4-yl)spiro[1,3-oxazole-4,9′-xanthen]-2-amine] | 3 | 17
Cc1cccc(Oc2ccc3c(c2)[C@@]2(COC(N)=N2)c2cc(N4CCOCC4)cc(F)c2O3)n1 [Example 1057, (4S)-4′-fluoro-7′-((6-methyl-2-pyridinyl)oxy)-2′-(4-morpholinyl)spiro[1,3-oxazole-4,9′-xanthen]-2-amine] | 73.2 | 687
Cc1ccc(Oc2ccc3c(c2)[C@@]2(COC(N)=N2)c2cc(N4CCOCC4)cc(F)c2O3)nc1 [Example 1058, (4S)-4′-fluoro-7′-((5-methyl-2-pyridinyl)oxy)-2′-(4-morpholinyl)spiro[1,3-oxazole-4,9′-xanthen]-2-amine] | 50.7 | 604
Cc1ccnc(Oc2ccc3c(c2)[C@@]2(COC(N)=N2)c2cc(N4CCOCC4)cc(F)c2O3)c1 [Example 1059, (4S)-4′-fluoro-7′-((4-methyl-2-pyridinyl)oxy)-2′-(4-morpholinyl)spiro[1,3-oxazole-4,9′-xanthen]-2-amine] | 33.9 | 609
NC1=N[C@@]2(CO1)c1cc(Oc3cccc(Cl)n3)ccc1Oc1c(F)cc(N3CCOCC3)cc12 [Example 1060, (4S)-7′-((6-chloro-2-pyridinyl)oxy)-4′-fluoro-2′-(4-morpholinyl)spiro[1,3-oxazole-4,9′-xanthen]-2-amine] | 33.5 | 318
NC1=N[C@@]2(CO1)c1cc(Oc3ccc(Cl)cn3)ccc1Oc1c(F)cc(N3CCOCC3)cc12 [Example 1061, (4S)-7′-((5-chloro-2-pyridinyl)oxy)-4′-fluoro-2′-(4-morpholinyl)spiro[1,3-oxazole-4,9′-xanthen]-2-amine] | 57.4 | 538
